Measurements from ChEMBL document CHEMBL1201862, “PubChem BioAssay data set” (2004).
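Each compound was tested at five concentrations against cells in 96-well plates for 48 hours. GI50 is the concentration that inhibits growth by half.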 Calls of active or inactive are those of the source. Rule as the data show it: active = GI50 up to about 1.1 µM and inactive = higher.

Key:
Assay in all cases: NCI tumour cell line growth inhibition, 48 h
MOLT-4 = test system: MOLT-4
COLO 205 = test system: COLO 205
SNB-75 = test system: SNB-75
ACHN = test system: ACHN
SW-620 = test system: SW-620
HL-60 = test system: HL-60
SNB-19 = test system: SNB-19
RPMI-8226 = test system: RPMI-8226
UO-31 = test system: UO-31
MDA-MB-231 = test system: MDA-MB-231
RXF 393 = test system: RXF 393
HCC 2998 = test system: HCC 2998
UACC-62 = test system: UACC-62
TK-10 = test system: TK-10
HOP-62 = test system: HOP-62
UACC-257 = test system: UACC-257
A549 = test system: A549
SK-MEL-28 = test system: SK-MEL-28
MDA-MB-435 = test system: MDA-MB-435
SF-539 = test system: SF-539
SF-268 = test system: SF-268
PC-3 = test system: PC-3
DU-145 = test system: DU-145
KM12 = test system: KM12
OVCAR-5 = test system: OVCAR-5
HT-29 = test system: HT-29
SF-295 = test system: SF-295
NCI/ADR-RES = test system: NCI/ADR-RES
NCI-H460 = test system: NCI-H460
NCI-H226 = test system: NCI-H226
SN12C = test system: SN12C
BT-549 = test system: BT-549
CCRF-CEM = test system: CCRF-CEM
EKVX = test system: EKVX
CAKI-1 = test system: CAKI-1
K562 = test system: K562
HCT-116 = test system: HCT-116
SR = test system: SR
T47D = test system: T47D
Malme-3M = test system: Malme-3M
OVCAR-8 = test system: OVCAR-8
HCT-15 = test system: HCT-15
M14 = test system: M14
IGROV-1 = test system: IGROV-1
NCI-H522 = test system: NCI-H522
SK-MEL-5 = test system: SK-MEL-5
MCF7 = test system: MCF7
MDA-N = test system: MDA-N
HOP-92 = test system: HOP-92
786-0 = test system: 786-0
NCI-H23 = test system: NCI-H23
LOX IMVI = test system: LOX IMVI
SK-OV-3 = test system: SK-OV-3
OVCAR-4 = test system: OVCAR-4
Hs-578T = test system: Hs-578T
SK-MEL-2 = test system: SK-MEL-2
OVCAR-3 = test system: OVCAR-3
U-251 = test system: U-251
A498 = test system: A498

Measured: GI50

O=C(CSC1=NC(=O)C2(NN1)c1ccccc1-c1ccccc12)NC(=S)Nc1ccccc1
inactive: MOLT-4 9.14 µM | COLO 205 > 10 µM | SNB-75 > 10 µM | ACHN 1.81 µM | SW-620 > 10 µM | HL-60 > 10 µM | SNB-19 > 10 µM | RPMI-8226 9.04 µM | UO-31 4.7 µM | MDA-MB-231 > 10 µM | RXF 393 > 10 µM | HCC 2998 > 10 µM | UACC-62 > 10 µM | TK-10 > 10 µM | HOP-62 > 10 µM | UACC-257 > 10 µM | A549 > 10 µM | SK-MEL-28 > 10 µM | MDA-MB-435 > 10 µM | SF-539 > 10 µM | SF-268 > 10 µM | PC-3 > 10 µM | DU-145 > 10 µM | KM12 > 10 µM | OVCAR-5 > 10 µM | HT-29 > 10 µM | SF-295 > 10 µM | NCI/ADR-RES 7.76 µM | NCI-H460 > 10 µM | NCI-H226 8.2 µM | SN12C > 10 µM | BT-549 > 10 µM | CCRF-CEM > 10 µM | EKVX 4.04 µM | CAKI-1 > 10 µM | K562 > 10 µM | HCT-116 > 10 µM | SR 6.03 µM | T47D 2.34 µM | Malme-3M > 10 µM | OVCAR-8 > 10 µM | M14 > 10 µM | IGROV-1 > 10 µM | NCI-H522 7.03 µM | SK-MEL-5 > 10 µM | MCF7 4.27 µM | MDA-N > 10 µM | HOP-92 > 10 µM | 786-0 > 10 µM | NCI-H23 > 10 µM | LOX IMVI > 10 µM | SK-OV-3 > 10 µM | OVCAR-4 > 10 µM
> 10 µM: HCT-15

COc1c(O)cc2c3c(ccnc13)NC=C2
inactive: MOLT-4 3.25 µM | COLO 205 > 100 µM | ACHN 55.7 µM | SW-620 68.2 µM | HL-60 11.4 µM | SNB-19 > 100 µM | RPMI-8226 > 100 µM | UO-31 36.8 µM | MDA-MB-231 35.6 µM | Hs-578T > 100 µM | RXF 393 18.1 µM | HCC 2998 > 100 µM | UACC-62 > 100 µM | TK-10 > 100 µM | UACC-257 > 100 µM | A549 > 100 µM | SK-MEL-28 > 100 µM | MDA-MB-435 > 100 µM | PC-3 24.3 µM | DU-145 > 100 µM | KM12 > 100 µM | OVCAR-5 > 100 µM | HT-29 16.9 µM | SF-295 > 100 µM | NCI/ADR-RES > 100 µM | NCI-H460 > 100 µM | NCI-H226 > 100 µM | SN12C > 100 µM | BT-549 > 100 µM | CCRF-CEM 4.78 µM | EKVX > 100 µM | CAKI-1 > 100 µM | K562 96.6 µM | HCT-116 76.9 µM | SK-MEL-2 57.9 µM | SR 17.3 µM | Malme-3M 85.7 µM | OVCAR-8 > 100 µM | M14 > 100 µM | OVCAR-3 12.4 µM | IGROV-1 > 100 µM | NCI-H522 1.63 µM | SK-MEL-5 > 100 µM | U-251 80.2 µM | MCF7 26.7 µM | MDA-N > 100 µM | A498 > 100 µM | HOP-92 > 100 µM | 786-0 41.9 µM | NCI-H23 > 100 µM | LOX IMVI 61.1 µM | SK-OV-3 83.2 µM | OVCAR-4 > 100 µM
> 100 µM: HCT-15

CC1(C)CN(CC(=O)O)CC(Cc2ccc(OCC(=O)O)cc2)N(CC(=O)O)CC(C)(C)SS1 (configuration not stated)
> 100 µM: HCT-15
inactive: MOLT-4 > 100 µM | COLO 205 > 100 µM | SNB-75 > 100 µM | ACHN > 100 µM | SW-620 > 100 µM | SNB-19 > 100 µM | RPMI-8226 > 100 µM | UO-31 > 100 µM | MDA-MB-231 > 100 µM | Hs-578T > 100 µM | RXF 393 > 100 µM | HCC 2998 > 100 µM | UACC-62 > 100 µM | TK-10 > 100 µM | HOP-62 > 100 µM | UACC-257 > 100 µM | A549 > 100 µM | SK-MEL-28 > 100 µM | MDA-MB-435 > 100 µM | SF-539 > 100 µM | SF-268 > 100 µM | PC-3 > 100 µM | DU-145 > 100 µM | KM12 > 100 µM | OVCAR-5 > 100 µM | HT-29 > 100 µM | SF-295 > 100 µM | NCI/ADR-RES > 100 µM | NCI-H460 > 100 µM | NCI-H226 > 100 µM | SN12C > 100 µM | BT-549 > 100 µM | EKVX > 100 µM | CAKI-1 > 100 µM | K562 > 100 µM | HCT-116 > 100 µM | SK-MEL-2 > 100 µM | Malme-3M > 100 µM | OVCAR-8 > 100 µM | M14 > 100 µM | OVCAR-3 > 100 µM | IGROV-1 > 100 µM | NCI-H522 > 100 µM | SK-MEL-5 > 100 µM | U-251 > 100 µM | MCF7 > 100 µM | MDA-N > 100 µM | A498 > 100 µM | HOP-92 > 100 µM | 786-0 > 100 µM | NCI-H23 > 100 µM | LOX IMVI > 100 µM | SK-OV-3 > 100 µM | OVCAR-4 > 100 µM

O=C1c2ccccc2-c2nc(-c3cccs3)cc3c2c1nc1ccccc13
15.2 µM: HCT-15
inactive: MOLT-4 37.1 µM | COLO 205 13.2 µM | SNB-75 24.9 µM | ACHN 34.4 µM | SW-620 13.8 µM | HL-60 5.42 µM | SNB-19 35.9 µM | RPMI-8226 23.2 µM | UO-31 22.7 µM | MDA-MB-231 58.3 µM | Hs-578T 21.3 µM | HCC 2998 16.7 µM | UACC-62 5.41 µM | TK-10 > 100 µM | HOP-62 22 µM | UACC-257 14.1 µM | A549 9.29 µM | SK-MEL-28 17.5 µM | MDA-MB-435 2.01 µM | SF-539 24.5 µM | SF-268 12.5 µM | PC-3 12.6 µM | DU-145 14.1 µM | KM12 11.4 µM | OVCAR-5 36.7 µM | HT-29 21.5 µM | SF-295 27.8 µM | NCI/ADR-RES 74.6 µM | NCI-H460 4.69 µM | NCI-H226 47.8 µM | SN12C > 100 µM | BT-549 22 µM | CCRF-CEM 22.3 µM | EKVX 98.2 µM | CAKI-1 88.7 µM | K562 13.5 µM | HCT-116 14.3 µM | SK-MEL-2 13.6 µM | SR 6.21 µM | Malme-3M 3.56 µM | OVCAR-8 41.8 µM | M14 3.27 µM | OVCAR-3 2.3 µM | IGROV-1 12.4 µM | NCI-H522 12.7 µM | U-251 18.6 µM | MCF7 13 µM | MDA-N 6.97 µM | HOP-92 > 100 µM | 786-0 35.8 µM | NCI-H23 11.9 µM | LOX IMVI 8.24 µM | SK-OV-3 > 100 µM | OVCAR-4 56 µM

COc1ccc(C2CC(c3cc4c(C)c(C(=O)c5ccccc5)oc4cc3O)=Nc3ccccc3S2)cc1OC (configuration not stated)
> 73.1 µM: HCT-15
active: MDA-MB-435 0.733 µM
inactive: MOLT-4 > 100 µM | COLO 205 > 100 µM | SNB-75 73.6 µM | ACHN > 65.8 µM | SW-620 > 84.7 µM | HL-60 9.82 µM | SNB-19 48.8 µM | RPMI-8226 > 91.6 µM | UO-31 > 100 µM | MDA-MB-231 > 87.3 µM | Hs-578T 25.8 µM | HCC 2998 > 100 µM | UACC-62 > 51.4 µM | TK-10 > 77.1 µM | UACC-257 > 100 µM | A549 96.8 µM | SK-MEL-28 > 100 µM | SF-539 > 50 µM | SF-268 > 42.7 µM | PC-3 > 100 µM | OVCAR-5 > 100 µM | HT-29 > 100 µM | NCI/ADR-RES > 58.1 µM | NCI-H460 > 100 µM | NCI-H226 > 100 µM | SN12C > 100 µM | BT-549 > 56.5 µM | CCRF-CEM 70.8 µM | EKVX 28.2 µM | K562 > 72.9 µM | HCT-116 > 90.4 µM | SK-MEL-2 > 59.2 µM | SR 52.5 µM | Malme-3M 25.8 µM | OVCAR-8 > 100 µM | M14 > 57.1 µM | IGROV-1 55.8 µM | NCI-H522 19.1 µM | SK-MEL-5 > 56.5 µM | U-251 > 65 µM | MCF7 > 64 µM | MDA-N > 40.2 µM | A498 > 57.5 µM | HOP-92 20.3 µM | 786-0 47.6 µM | NCI-H23 52.7 µM | LOX IMVI > 100 µM
